Like-named read-outs stand apart in the source and are kept apart here. Starred links: 1 amine or outer side, 2 acyl side, 3 side chain; linkers in the order of their positions; H or OH if unused. Positions of bridges follow the written chain, without caps; N, C: chain ends. Non-standard residues stand in square brackets, D forms with d. Residues, ends and D or L forms follow the SMILES beside them. *: point of attachment. AMPB(E) = O=C(c1ccc(/N=N/c2ccc(CN[*:1])cc2)cc1)[*:2]; AMPB = O=C(c1ccc(N=Nc2ccc(CN[*:1])cc2)cc1)[*:2]; X1 = O=C(c1ccc(/N=N\c2ccc(CN[*:1])cc2)cc1)[*:2]; d(αMeK) = C[C@@](N)(CCCCN)C(=O)O; dPhg = N[C@@H](C(=O)O)c1ccccc1; Isobutyryl = CC(C)C(=O)*; Abu = CC[C@H](N)C(=O)O; Ahx = NCCCCCC(=O)O; βAla = NCCC(=O)O
How the values were obtained:
[1] = test system: MLL-AF9-transduced mouse bone marrow cells; experiment: Proliferation / cell viability assay (CellTiter-Glo); format: cell-based; conditions: for Inhibition (%) of growth: 5 μM
Description: (§1) We initially studied the cellular uptake and cell viability of our compounds in murine MLL-AF9-transduced mouse bone marrow cells (Fig. 5). In line with our expectations, peptidomimetics 16 and 17 that contained peptide 7 within their sequence are the ones that inhibited the cell proliferation of leukemia. […] Thus, while in the case of the trans isomer of peptidomimetic 16 we already determined less than 50% of viable cells at 2.5 μM concentration, with the WIN-containing conjugates 20 and 21 we measured 87% and 96% of viable cells at 50 μM concentration, respectively.
(§2) We then examined the potential of 16 and 17 to control externally the cellular response in proliferation assays. Thus, both isomers of both peptidomimetics were incubated at different concentrations for four days. After two days of incubation, the cells containing the cis isomers were irradiated at 430 nm for 90 seconds in a single isomerization cycle with a custom-made 6-well plate LED array.
(§3) MLL-AF9-transduced mouse bone marrow was cultured in IMDM medium + 15% FBS and supplemented with 10 ng/mL interleukin-3 (IL-3) at each passage, every other day.
(§4) DMSO) isomers, of peptides 7, 16, 17, as well as the peptides 18 and 19 were diluted from stock to culture media containing a 0.1% DMSO final concentration. For viability assays, […]
(§5) 72 h and DMSO as control . For the cis-trans group, after 48 h treatment with cis peptides, the plate was irradiated at […] for 90 sec and continued to culture for 2 days in the dark.
(§6) Viability was determined using the CellTiter-Glo Kit (Promega) according to the a a ’ d . was monitored on a Molecular Devices plate reader.

WDR5Δ23 = target: T1, WDR5Δ23 (Homo sapiens, UniProt P61964); experiment: Fluorescence polarization (FP)-based competitive binding assay
T1 construct: His6-SUMO (N, cleaved yes); made in house; host or cells: E. coli DH5α (so in the source)

[2] = target: MLL1 core complex (MLL1, WDR5, RbBP5, and ASH2L) (Homo sapiens, UniProt P61964); experiment: biochemical
Description: To test this, we studied the inhibition of MLL1 H3K4 methyltransferase activity through the previously reported in vitro HMT assay using the MLL1 core complex (i.e. MLL1, WDR5, RbBP5, and ASH2L) and the H3 20mer peptide as substrate.[17]
In Vitro Methyl Transferase Assay with MLL1 Core Complex
In Vitro Histone Methyltransferase (HMT) Assay
The HMT assay was performed, as previously described[25] with slight modifications, in 50 mM Tris pH 8.0, 50 mM NaCl, 1.0 mM DTT, 5 mM MgCl2 at room temperature. Each reaction contained 1.5 μM of the cofactor 3H-S-adenosylmethionine (Perkin-Elmer). H31-21 peptide was used as the substrate at 250 μM. […] Reactions were initiated by addition of the H3/SAM and allowed to proceed for 60 min before preparing scintillation counting. To count samples, reactions were spotted on separate squares of P81 filter paper (Millipore) and precipitated by submerging in freshly prepared 50 mM sodium bicarbonate buffer pH = 9.0. After washing and drying, the samples were vortexed in Ultima Gold scintillation fluid and counted.

[3] = Proliferation / cell viability assay (CellTiter-Glo); format: cell-based, mouse
Description: as §1, §2, §3, §4, §5, §6

[4] = IC50 cis (with 5 nM tracer), cis isomer (366 nm), 20 nM WDR5Δ23, 5 nM tracer 22
[5] = non-irradiated peptide (trans isomer), 72 nM WDR5Δ23, 20 nM tracer 22, read-out: IC50, non-irradiated (trans)
[6] = non-irradiated peptide (trans isomer), 72 nM WDR5Δ23, 20 nM tracer 22, read-out: Ki, non-irradiation (trans)
[7] = IC50 trans (with 5 nM tracer), trans isomer, 20 nM WDR5Δ23, 5 nM tracer 22

Compound	IC50 (WDR5Δ23; [5]) [µM]	Ki (WDR5Δ23; [6]) [µM]	further results
CC(C)C[C@H](NC(=O)[C@H](Cc1c[nH]cn1)NC(=O)[C@@H](NC(=O)c1ccc(/N=N\c2ccc(CNC(=O)[C@H](C)NC(=O)[C@H](CCCNC(=N)N)NC(=O)[C@H](C)NC(=O)[C@@H](N)CO)cc2)cc1)C(C)C)C(=O)N[C@@H](CCCNC(=N)N)C(=O)N[C@@H](CCCCN)C(=O)N[C@@H](CO)C(=O)N[C@@H](CCCNC(=N)N)C(=O)N[C@@H](CCCNC(=N)N)C(=O)N[C@@H](CCCNC(=N)N)C(=O)N[C@@H](CCCNC(=N)N)C(=O)N[C@@H](CCCNC(=N)N)C(=O)N[C@@H](CCCNC(=N)N)C(=O)N[C@@H](CCCNC(=N)N)C(=O)N[C@@H](CCCNC(=N)N)C(N)=O [16cis, H2N-SARA-AMPB-VHLRKS-R8-NH2] (H-SARA[X1]VHLRKSRRRRRRRR-NH2)			GI50 ([1]; 96 h): 2.88 ± 0.24 µM
CC(C)C[C@H](NC(=O)[C@H](Cc1c[nH]cn1)NC(=O)[C@@H](NC(=O)c1ccc(/N=N\c2ccc(CNC(=O)[C@H](C)NC(=O)[C@H](CCCNC(=N)N)NC(=O)[C@H](C)NC(=O)[C@@H](N)CO)cc2)cc1)C(C)C)C(=O)N[C@@H](CCCNC(=N)N)C(=O)N[C@@H](CCCCN)C(=O)N[C@@H](CO)C(N)=O [7cis, H2N-SARAXVHLRKS-CONH2] (H-SARA[X1]VHLRKS-NH2)			IC50 (WDR5Δ23; [4]): 0.147 ± 0.014 µM; Inhibition (%) of growth ([1]; 96 h incubation): ≈ 0%; IC50 [2]: 8.23 ± 0.38 µM
CC(=O)N[C@@H](C)C(=O)N[C@@H](CCCNC(=N)N)C(=O)N[C@H](C(=O)NCc1ccc(N=Nc2ccc(C(=O)N[C@H](C(=O)N[C@@H](Cc3ccc(O)cc3)C(N)=O)C(C)C)cc2)cc1)[C@@H](C)O [peptide 15, Ac-ARTXVY-CONH2] (Ac-ART[AMPB]VY-NH2)	0.109 ± 0.01	0.000767 ± 0.00015	
H2N-SXARAEVHLRKS-CONH2 [peptide 4, X = AMPB]			binding constant to WDR5 (in words) (WDR5Δ23; both isomers): not possible to obtain measurable binding constants
CC(C)C[C@H](NC(=O)[C@H](Cc1c[nH]cn1)NC(=O)[C@@H](NC(=O)c1ccc(/N=N/c2ccc(CNC(=O)[C@H](C)NC(=O)[C@H](CCCNC(=N)N)NC(=O)[C@H](C)NC(=O)[C@@H](N)CO)cc2)cc1)C(C)C)C(=O)N[C@@H](CCCNC(=N)N)C(=O)N[C@@H](CCCCN)C(=O)N[C@@H](CO)C(N)=O [7trans, H2N-SARAXVHLRKS-CONH2] (H-SARA[AMPB(E)]VHLRKS-NH2)			IC50 (WDR5Δ23; [7]): 0.057 ± 0.011 µM; Inhibition (%) of growth ([1]; 96 h incubation): 0%; IC50 [2]: 0.531 ± 0.023 µM
CC(C)C[C@H](NC(=O)[C@H](Cc1c[nH]cn1)NC(=O)c1ccc(N=Nc2ccc(CNC(=O)[C@H](CCC(=O)O)NC(=O)[C@H](C)NC(=O)[C@H](CCCNC(=N)N)NC(=O)[C@H](C)NC(=O)[C@@H](N)CO)cc2)cc1)C(=O)N[C@@H](CCCNC(=N)N)C(=O)N[C@@H](CCCCN)C(=O)N[C@@H](CO)C(N)=O [peptide 8, H2N-SARAEXHLRKS-CONH2] (H-SARAE[AMPB]HLRKS-NH2)	0.21 ± 0.035	0.0024 ± 0.0006	
CC(C)C[C@H](NC(=O)[C@H](Cc1c[nH]cn1)NC(=O)[C@@H](NC(=O)[C@H](CCC(=O)O)NC(=O)[C@H](C)NC(=O)[C@H](CCCNC(=N)N)NC(=O)[C@H](C)NC(=O)[C@@H](N)CO)C(C)C)C(=O)N[C@@H](CCCNC(=N)N)C(=O)NCc1ccc(N=Nc2ccc(C(=O)N[C@@H](CO)C(N)=O)cc2)cc1 [peptide 12, H2N-SARAEVHLRXS-CONH2] (H-SARAEVHLR[AMPB]S-NH2)	1.32 ± 0.11	0.0198 ± 0.0017	
CC(=O)N[C@@H](C)C(=O)N[C@@H](CCCNC(=N)N)C(=O)N[C@@H](C)C(=O)NCc1ccc(N=Nc2ccc(C(=O)N[C@H](C(=O)N[C@@H](Cc3c[nH]cn3)C(=O)N[C@@H](CC(C)C)C(=O)N[C@@H](CCCNC(=N)N)C(=O)N[C@@H](CCCCN)C(=O)N[C@@H](CO)C(N)=O)C(C)C)cc2)cc1 [peptide 14, Ac-ARAXVHLRKS-CONH2] (Ac-ARA[AMPB]VHLRKS-NH2)		0.00145 ± 0.00052	IC50 (WDR5Δ23; [4]): 0.102 ± 0.015 µM; IC50 (WDR5Δ23; [7]): 0.045 ± 0.011 µM; Ki (WDR5Δ23; Ki cis (with 5 nM tracer), cis isomer (366 nm), 20 nM WDR5Δ23, 5 nM tracer 22): 0.0045 ± 0.00082 µM; Ki (WDR5Δ23; Ki trans (with 5 nM tracer), trans isomer, 20 nM WDR5Δ23, 5 nM tracer 22): 0.0015 ± 0.00063 µM
CC(C)C[C@H](NC(=O)[C@H](Cc1c[nH]cn1)NC(=O)[C@@H](NC(=O)[C@H](CCC(=O)O)NC(=O)[C@H](C)NC(=O)[C@H](CCCNC(=N)N)NC(=O)[C@H](C)NC(=O)[C@@H](N)CO)C(C)C)C(=O)N[C@@H](CCCNC(=N)N)C(=O)N[C@@H](CCCCN)C(=O)N[C@@H](CO)C(=O)N[C@@H](CCCNC(=N)N)C(=O)NCCCCCC(=O)N[C@@H](CCCNC(=N)N)C(=O)N[C@@H](CCCNC(=N)N)C(=O)NCCCCCC(=O)N[C@@H](CCCNC(=N)N)C(=O)N[C@@H](CCCNC(=N)N)C(=O)NCCCCCC(=O)N[C@@H](CCCNC(=N)N)C(=O)N[C@@H](CCCNC(=N)N)C(=O)NCCCCCC(=O)N[C@@H](CCCNC(=N)N)C(=O)NCCCCCC(=O)NCCC(N)=O [peptide 21] (H-SARAEVHLRKSR[Ahx]RR[Ahx]RR[Ahx]RR[Ahx]R[Ahx][βAla]-NH2)	0.612 ± 0.02	0.00867 ± 0.00032	viability at 50 µM [3]: 96%
CC(C)C[C@H](NC(=O)[C@H](Cc1c[nH]cn1)NC(=O)[C@@H](NC(=O)[C@H](CCC(=O)O)NC(=O)[C@H](C)NC(=O)[C@H](CCCNC(=N)N)NC(=O)[C@H](C)NC(=O)[C@@H](N)CO)C(C)C)C(=O)N[C@@H](CCCNC(=N)N)C(=O)N[C@@H](CCCCN)C(=O)N[C@@H](CO)C(=O)N[C@@H](CCCNC(=N)N)C(=O)N[C@@H](CCCNC(=N)N)C(=O)N[C@@H](CCCNC(=N)N)C(=O)N[C@@H](CCCNC(=N)N)C(=O)N[C@@H](CCCNC(=N)N)C(=O)N[C@@H](CCCNC(=N)N)C(=O)N[C@@H](CCCNC(=N)N)C(=O)N[C@@H](CCCNC(=N)N)C(N)=O [peptide 20] (H-SARAEVHLRKSRRRRRRRR-NH2)	0.368 ± 0.02	0.00483 ± 0.00031	viability at 50 µM [3]: 87%
CC(C)C[C@H](NC(=O)[C@H](Cc1c[nH]cn1)NC(=O)[C@@H](NC(=O)[C@H](CCC(=O)O)NC(=O)[C@H](C)NC(=O)[C@H](CCCNC(=N)N)NC(=O)[C@H](C)NC(=O)[C@@H](N)CO)C(C)C)C(=O)NCc1ccc(N=Nc2ccc(C(=O)N[C@@H](CCCCN)C(=O)N[C@@H](CO)C(N)=O)cc2)cc1 [peptide 11, H2N-SARAEVHLXKS-CONH2] (H-SARAEVHL[AMPB]KS-NH2)	2.14 ± 0.28	0.0328 ± 0.0045	
CC(C)C[C@H](NC(=O)[C@H](Cc1c[nH]cn1)NC(=O)c1ccc(N=Nc2ccc(CNC(=O)[C@H](C)NC(=O)[C@H](CCCNC(=N)N)NC(=O)[C@H](C)NC(=O)[C@@H](N)CO)cc2)cc1)C(=O)N[C@@H](CCCNC(=N)N)C(=O)N[C@@H](CCCCN)C(=O)N[C@@H](CO)C(N)=O [peptide 13, H2N-SARAXHLRKS-CONH2] (H-SARA[AMPB]HLRKS-NH2)	0.293 ± 0.05	0.00363 ± 0.0008	
CC(C)[C@H](NC(=O)[C@H](CCC(=O)O)NC(=O)[C@H](C)NC(=O)[C@H](CCCNC(=N)N)NC(=O)[C@H](C)NC(=O)[C@@H](N)CO)C(=O)N[C@@H](Cc1c[nH]cn1)C(=O)NCc1ccc(N=Nc2ccc(C(=O)N[C@@H](CCCNC(=N)N)C(=O)N[C@@H](CCCCN)C(=O)N[C@@H](CO)C(N)=O)cc2)cc1 [peptide 10, H2N-SARAEVHXRKS-CONH2] (H-SARAEVH[AMPB]RKS-NH2)	1.15 ± 0.12	0.017 ± 0.0019	
CC[C@@H]1NC(=O)[C@H](CCCN=C(N)N)NC(=O)[C@](C)(NC(=O)C(C)C)CCCCNC(=O)[C@@H](c2ccccc2)NC1=O [MM401, reference compound] (Isobutyryl-[d(αMeK)]R[Abu][dPhg]; lactam 1-C)			GI50 ([1]; 96 h incubation, cis isomers kept in the dark, read-out: GI50): 9.76 µM
CC(C)C[C@H](NC(=O)[C@H](Cc1c[nH]cn1)NC(=O)[C@@H](NC(=O)[C@H](CCC(=O)O)NC(=O)[C@H](C)NC(=O)[C@H](CCCNC(=N)N)NC(=O)c1ccc(N=Nc2ccc(CNC(=O)[C@@H](N)CO)cc2)cc1)C(C)C)C(=O)N[C@@H](CCCNC(=N)N)C(=O)N[C@@H](CCCCN)C(=O)N[C@@H](CO)C(N)=O [peptide 5, H2N-SXRAEVHLRKS-CONH2] (H-S[AMPB]RAEVHLRKS-NH2)	3.91 ± 0.83	0.0668 ± 0.01	
CC(C)C[C@H](NC(=O)c1ccc(N=Nc2ccc(CNC(=O)[C@@H](NC(=O)[C@H](CCC(=O)O)NC(=O)[C@H](C)NC(=O)[C@H](CCCNC(=N)N)NC(=O)[C@H](C)NC(=O)[C@@H](N)CO)C(C)C)cc2)cc1)C(=O)N[C@@H](CCCNC(=N)N)C(=O)N[C@@H](CCCCN)C(=O)N[C@@H](CO)C(N)=O [peptide 9, H2N-SARAEVXLRKS-CONH2] (H-SARAEV[AMPB]LRKS-NH2)	2.53 ± 0.39	0.0404 ± 0.0039	

From PMC5618341, “Controlled inhibition of methyltransferases using photoswitchable peptidomimetics: towards an epigenetic regulation of leukemia” (Chemical Science, 2017)
